Earlier results on one molecule are cited in patent publication US12527815B2, “Aqueous formulation including dissolved hydrogen gas and minerals and additives” (BEST PLANET SCIENCE LLC, priority 2023, dated 2026).

For the data set the following is noted: partial pressure of one atm.

Consider `[HH]` [hydrogen gas, hydrogen], for which the “equilibrium concentration (saturation) of hydrogen gas in water” value is recorded as 1.57 mg/L.
